From ChEMBL document CHEMBL1137289, “Structure-activity relationships of novel antibacterial translation inhibitors: 3,5-diamino-piperidinyl triazines” (Bioorg Med Chem Lett, 2006) come the findings set out here.

≈ marks a conversion by molar mass, not a printed value.

Data set [1] concerns Escherichia coli. In words: microbe, parasite or virus in culture. Conditions: ATCC 25922.
Description: Antibacterial activity against Escherichia coli ATCC 25922
The subject of data set [2] is Escherichia coli. Put plainly: Inhibition of protein synthesis in Escherichia coli S30 extracts by coupled transcription-translation assay. Format: functional.
Another data set concerns Staphylococcus aureus. Put plainly: microbe, parasite or virus in culture. The conditions noted are these: ATCC 25923.
The subject of data set [3] is Escherichia coli. Put plainly: Antibacterial activity against wild type impermeable Escherichia coli LMG194. Format: functional.
A further data set relates to Pseudomonas aeruginosa. In words: Antibacterial activity against Pseudomonas aeruginosa ATCC 27853. It is filed as functional.
Data set [4] can be described thus: (§1) Cytotoxicity against CEM T cells after 72 hrs by proliferation assay. Format: cell-based, CCRF-CEM. The conditions noted are these: human, CCRF-CEM (CEM) T cells.
Data set [5] deals with Escherichia coli. In words: Antibacterial activity against isogenic permeable mutant Escherichia coli LMG194. It is filed as functional.
The test system of a further data set is CCRF-CEM. The description is as §1. Format: cell-based. The conditions noted are these: human, ccrf-cem, 72 h.

Description for Staphylococcus aureus: Antibacterial activity against Staphylococcus aureus ATCC 25923

One may read the IC50 as the concentration at which inhibition is half-maximal. Low readings indicate higher potency, high ones lower potency. For `N[C@@H]1C[C@H](N)CN(c2nc(Nc3ccc(S(N)(=O)=O)cc3)nc(N3C[C@H](N)C[C@H](N)C3)n2)C1`, the MIC against Escherichia coli [1], against Staphylococcus aureus and in the data set on Escherichia coli [3] was > 64 µg/mL each time. The compound also returned an IC50 with Escherichia coli [2] (Escherichia coli) of 4 µM.

Regarding `Cc1cc(C)cc(Nc2nc(N3C[C@H](N)C[C@H](N)C3)nc(N3C[C@H](N)C[C@H](N)C3)n2)c1`, the MIC against Escherichia coli [1] is 64 µg/mL (≈ 150 µM); with Staphylococcus aureus it was 32 µg/mL (≈ 75 µM); in the data set on Escherichia coli [3] it was > 64 µg/mL. The compound also came in with an IC50 with Escherichia coli [2] (Escherichia coli) of 13 µM.

The CC50 is the concentration that lowers cell viability or growth by half. A lower CC50 goes with harm at low concentration. Consider `N[C@@H]1C[C@H](N)CN(c2nc(Nc3ccc(NC(=O)c4ccc(Cl)cc4)c(O)c3)nc(N3C[C@H](N)C[C@H](N)C3)n2)C1`, for which the MIC in the data set on Escherichia coli [1] is 2 µg/mL (≈ 3.52 µM); against Pseudomonas aeruginosa, ≤ 0.5 µg/mL; against Staphylococcus aureus, 16 µg/mL (≈ 28.2 µM). The IC50 in the data set on Escherichia coli [2] (Escherichia coli) turned out to be 7 µM. This compound also gave a CC50 at 72 h in data set [4] of 180 µM.

Turning to `N[C@@H]1C[C@H](N)CN(c2nc(Nc3ccc(C(=O)CC(=O)Nc4ccc(F)c(F)c4)cc3)nc(N3C[C@H](N)C[C@H](N)C3)n2)C1`, the figures for the MIC against Escherichia coli [1], against Pseudomonas aeruginosa and in the data set on Staphylococcus aureus were 4 µg/mL (≈ 6.72 µM), 1 µg/mL (≈ 1.68 µM) and 16 µg/mL (≈ 26.9 µM), respectively. In the data set with Escherichia coli [2] (Escherichia coli), this compound had an IC50 of 9 µM. This compound yielded a CC50 at 72 h in data set [4] of 179 µM.

Consider `N[C@@H]1C[C@H](N)CN(c2nc(Nc3ccc(C(=O)CC(=O)Nc4ccc(-c5ccccc5)cc4)cc3)nc(N3C[C@H](N)C[C@H](N)C3)n2)C1`, for which the figures for the MIC in the data set on Escherichia coli [1], against Pseudomonas aeruginosa and in the data set with Staphylococcus aureus were 4 µg/mL (≈ 6.29 µM), ≤ 1 µg/mL and 16 µg/mL (≈ 25.2 µM), respectively. This compound also showed a concentration for half-maximal inhibition (IC50) with Escherichia coli [2] (Escherichia coli) of 6 µM. In addition, the half-maximal cytotoxic concentration (CC50) at 72 h in data set [4] was determined as 24 µM.

On to `N[C@@H]1C[C@H](N)CN(c2nc(Nc3ccc(C(=O)CC(=O)Nc4ccc5c(c4)OC(F)(F)O5)cc3)nc(N3C[C@H](N)C[C@H](N)C3)n2)C1`, for which the MIC with Escherichia coli [1] came to 4 µg/mL (≈ 6.25 µM); in the data set on Pseudomonas aeruginosa it was 1 µg/mL (≈ 1.56 µM); against Staphylococcus aureus it was 8 µg/mL (≈ 12.5 µM). The compound further had an IC50 in the data set with Escherichia coli [2] (Escherichia coli) of 6 µM. This compound also gave a CC50 at 72 h in data set [4] of 146 µM.

Turning to `N[C@@H]1C[C@H](N)CN(c2nc(Nc3ccc(Br)cc3)nc(N3C[C@H](N)C[C@H](N)C3)n2)C1`, the MIC with Escherichia coli [1] was > 64 µg/mL; in the data set on Escherichia coli [5] it was 4 µg/mL (≈ 8.38 µM); with Staphylococcus aureus it was > 64 µg/mL; with Escherichia coli [3], > 64 µg/mL. The same compound displayed an IC50 with Escherichia coli [2] (Escherichia coli) of 4 µM.

Consider `N[C@@H]1C[C@H](N)CN(c2nc(Nc3ccc([N+](=O)[O-])cc3)nc(N3C[C@H](N)C[C@H](N)C3)n2)C1`, for which the MIC amounted to 32 µg/mL (≈ 72.2 µM) with Escherichia coli [1], 4 µg/mL (≈ 9.02 µM) against Escherichia coli [5], 32 µg/mL (≈ 72.2 µM) in the data set with Staphylococcus aureus and 32 µg/mL (≈ 72.2 µM) with Escherichia coli [3]. Besides, the IC50 with Escherichia coli [2] (Escherichia coli) is 4 µM.

As to `N[C@@H]1C[C@H](N)CN(c2nc(Nc3ccccc3F)nc(N3C[C@H](N)C[C@H](N)C3)n2)C1`, the MIC in the data set on Escherichia coli [1], in the data set with Staphylococcus aureus and in the data set on Escherichia coli [3] was > 64 µg/mL each time. For the same compound, half-maximal inhibition in the data set on Escherichia coli [2] (Escherichia coli) (IC50) was put at 5 µM.

With `Cc1ccc2nc(-c3ccc(Nc4nc(N5C[C@H](N)C[C@H](N)C5)nc(N5C[C@H](N)C[C@H](N)C5)n4)cc3)sc2c1`, the MIC with Escherichia coli [1] and against Staphylococcus aureus was 2 µg/mL (≈ 3.66 µM) throughout. Further, the IC50 in the data set with Escherichia coli [2] (Escherichia coli) is 10 µM. Besides, in data set [4], the CC50 at 72 h was 33 µM.

In the case of `CN(C)c1ccc(Nc2nc(N3C[C@H](N)C[C@H](N)C3)nc(N3C[C@H](N)C[C@H](N)C3)n2)cc1`, the MIC with Escherichia coli [1], with Staphylococcus aureus and with Escherichia coli [3] was > 64 µg/mL each time. In the data set on Escherichia coli [2] (Escherichia coli), this compound registered a half-inhibitory concentration (IC50) of 11 µM.

As to `N[C@@H]1C[C@H](N)CN(c2nc(Nc3ccc4c(c3)CCC4)nc(N3C[C@H](N)C[C@H](N)C3)n2)C1`, the MIC in the data set on Escherichia coli [1] is > 64 µg/mL; in the data set on Escherichia coli [5], 8 µg/mL (≈ 18.2 µM); in the data set on Staphylococcus aureus, 32 µg/mL (≈ 73 µM); against Escherichia coli [3] it was 64 µg/mL (≈ 146 µM). In the data set with Escherichia coli [2] (Escherichia coli), this compound gave an IC50 of 15 µM.

With `COc1ccc(Nc2nc(N3C[C@H](N)C[C@H](N)C3)nc(N3C[C@H](N)C[C@H](N)C3)n2)cc1`, the MIC against Escherichia coli [1], with Staphylococcus aureus and in the data set on Escherichia coli [3] was > 64 µg/mL throughout. The compound also had an IC50 in the data set on Escherichia coli [2] (Escherichia coli) of 14 µM.

On to `N[C@@H]1C[C@H](N)CN(c2nc(Nc3ccc(C(=O)CC(=O)Nc4cccc(Br)c4)cc3)nc(N3C[C@H](N)C[C@H](N)C3)n2)C1`, for which the MIC is 2 µg/mL (≈ 3.13 µM) against Escherichia coli [1], ≤ 1 µg/mL in the data set on Pseudomonas aeruginosa and 16 µg/mL (≈ 25.1 µM) against Staphylococcus aureus. For the same compound, in the data set with Escherichia coli [2] (Escherichia coli), 5 µM corresponded to half-maximal inhibition (IC50). In data set [4], this compound showed a cytotoxic concentration (CC50) at 72 h of 124 µM.

On to `N[C@@H]1C[C@H](N)CN(c2nc(Nc3ccc(NC(=O)c4ccc5ccccc5c4O)cc3)nc(N3C[C@H](N)C[C@H](N)C3)n2)C1`, for which the MIC was 1 µg/mL (≈ 1.71 µM) with Escherichia coli [1], 1 µg/mL (≈ 1.71 µM) against Pseudomonas aeruginosa and 2 µg/mL (≈ 3.43 µM) in the data set with Staphylococcus aureus. This compound also returned an IC50 with Escherichia coli [2] (Escherichia coli) of 10 µM. In addition, in data set [4], it took 140 µM to reach half-maximal cytotoxicity (CC50 at 72 h).

Regarding `N[C@@H]1C[C@H](N)CN(c2nc(Nc3ccc(F)cc3)nc(N3C[C@H](N)C[C@H](N)C3)n2)C1`, the MIC was determined as 64 µg/mL (≈ 154 µM) against Escherichia coli [1], 4 µg/mL (≈ 9.6 µM) against Escherichia coli [5], 16 µg/mL (≈ 38.4 µM) against Staphylococcus aureus and 32 µg/mL (≈ 76.8 µM) against Escherichia coli [3]. Besides, 3 µM corresponded to half-maximal inhibition in the data set on Escherichia coli [2] (Escherichia coli) (IC50).

As for `N[C@@H]1C[C@H](N)CN(c2nc(Nc3cccc(C(F)(F)F)c3)nc(N3C[C@H](N)C[C@H](N)C3)n2)C1`, the MIC against Escherichia coli [1] worked out at 32 µg/mL (≈ 68.6 µM); against Escherichia coli [5], 4 µg/mL (≈ 8.57 µM); in the data set with Staphylococcus aureus, 16 µg/mL (≈ 34.3 µM); against Escherichia coli [3] it was 32 µg/mL (≈ 68.6 µM). The IC50 in the data set on Escherichia coli [2] (Escherichia coli) stood at 5 µM.

For `N[C@@H]1C[C@H](N)CN(c2nc(Nc3ccc(O)cc3)nc(N3C[C@H](N)C[C@H](N)C3)n2)C1`, the MIC with Escherichia coli [1], against Staphylococcus aureus and against Escherichia coli [3] was > 64 µg/mL in each case. Inhibition in the data set on Escherichia coli [2] (Escherichia coli) was half-maximal at 11 µM (IC50).

`COc1cc(Nc2nc(N3C[C@H](N)C[C@H](N)C3)nc(N3C[C@H](N)C[C@H](N)C3)n2)ccc1NC(=O)c1ccc(Cl)cc1O` showed an MIC against Escherichia coli [1] of 4 µg/mL (≈ 6.69 µM). Moreover, in the data set on Escherichia coli [2] (Escherichia coli), the IC50 is 8 µM.

Regarding `COc1cccc(Nc2nc(N3C[C@H](N)C[C@H](N)C3)nc(N3C[C@H](N)C[C@H](N)C3)n2)c1NC(=O)c1ccc(Cl)cc1O`, the MIC in the data set on Escherichia coli [1] is > 64 µg/mL. The compound also displayed an IC50 in the data set with Escherichia coli [2] (Escherichia coli) of 30 µM.

Take `N[C@@H]1C[C@H](N)CN(c2nc(Nc3ccc(C(=O)CC(=O)Nc4ccccc4Cl)cc3)nc(N3C[C@H](N)C[C@H](N)C3)n2)C1`: the results for the MIC with Escherichia coli [1], with Pseudomonas aeruginosa and in the data set with Staphylococcus aureus were 4 µg/mL (≈ 6.73 µM), ≤ 1 µg/mL and 16 µg/mL (≈ 26.9 µM), respectively. In the data set on Escherichia coli [2] (Escherichia coli), this compound yielded an IC50 of 4 µM. In addition, the CC50 at 72 h in data set [4] was 71 µM.

In the case of `Cc1ccc(S(=O)(=O)N(Cc2ccccc2)c2ccc(Nc3nc(N4C[C@H](N)C[C@H](N)C4)nc(N4C[C@H](N)C[C@H](N)C4)n3)cc2O)cc1`, the MIC with Escherichia coli [1] was 4 µg/mL (≈ 5.94 µM); in the data set with Pseudomonas aeruginosa, 16 µg/mL (≈ 23.7 µM); against Staphylococcus aureus it was 16 µg/mL (≈ 23.7 µM). Moreover, in the data set with Escherichia coli [2] (Escherichia coli), inhibition was half-maximal at 4 µM (IC50). Also, in data set [4], the CC50 at 72 h came to 68 µM.

Consider `N[C@@H]1C[C@H](N)CN(c2nc(Nc3ccccc3)nc(N3C[C@H](N)C[C@H](N)C3)n2)C1`, for which the MIC with Escherichia coli [1], in the data set with Staphylococcus aureus and against Escherichia coli [3] was > 64 µg/mL each time. In the data set with Escherichia coli [2] (Escherichia coli), this compound returned an IC50 of 7 µM.

Regarding `N[C@@H]1C[C@H](N)CN(c2nc(Nc3ccc(NC(=O)C(=O)c4c[nH]c5ccccc45)c(O)c3)nc(N3C[C@H](N)C[C@H](N)C3)n2)C1`, the MIC in the data set on Escherichia coli [1] is 1 µg/mL (≈ 1.66 µM); with Pseudomonas aeruginosa, ≤ 0.5 µg/mL; in the data set on Staphylococcus aureus, 16 µg/mL (≈ 26.6 µM). The midpoint of inhibition in the data set with Escherichia coli [2] (Escherichia coli), the IC50, lay at 4 µM. The compound further came in with a CC50 at 72 h in data set [4] of 92 µM.

Regarding `O=C(N[C@H](CO)[C@H](O)c1ccc([N+](=O)[O-])cc1)C(Cl)Cl` [CHLORAMPHENICOL], the figures for the MIC against Escherichia coli [1], against Pseudomonas aeruginosa and with Staphylococcus aureus were 4 µg/mL (≈ 12.4 µM), > 64 µg/mL and 8 µg/mL (≈ 24.8 µM), respectively. Moreover, the IC50 in the data set on Escherichia coli [2] (Escherichia coli) is 1.5 µM.

Take GENTAMICIN: the IC50 in the data set with Escherichia coli [2] worked out at 0.03 µM. For the same compound, the cytotoxic concentration (CC50) in the data set on CCRF-CEM is > 300 µM.
